Measurements from patent publication US7109185B2, “Pharmaceutical formulations comprising indolinone derivatives” (Sugen, Inc., priority 2001, dated 2006).

Key:
[1] = Plasma Stability Test: conversion of prodrug to drug after IV administration to dogs, HPLC analysis of blood plasma; assay type: in vivo; details: IV at 2 mg/mL, blood plasma followed for 4 hours
Procedure: The prodrug (3Z)-3-[(3,5-dimethyl-1H-pyrrol-2-yl)-methylidene]-1-(1-pyrrolidinylmethyl)-1,3-dihydro-2H-indol-2-one was administered IV at 2 mg/mL to dogs. Levels of both prodrug and drug (3(Z)-3-[(3,5-dimethyl-1H-pyrrol-2-yl)-methylidene]-1,3-dihydro-2H-indol-2-one) were followed by HPLC analysis of blood plasma for 4 hours following dosing.

[2] = Hydrolysis (pH stability profile) at pH 7.2 and 7.6; assay type: physicochemical; details: for half-life: buffer, read-out: Half life, t1/2 (hydrolysis)
From the text: (3Z)-3-[(3,5-Dimethyl-1H-pyrrol-2-yl)-methylidene]-1-(1-pyrrolidinylmethyl)-1,3-dihydro-2H-indol-2-one is a Mannich base and is designed to hydrolyse to 3-(3,5-dimethyl-1H-pyrrol-2-ylmethylene)-1,3-dihydro-indol-2-one at physiological pH. The stability of (3Z)-3-[(3,5-dimethyl-1H-pyrrol-2-yl)-methylidene]-1-(1-pyrrolidinylmethyl)-1,3-dihydro-2H-indol-2-one is higher at a lower pH. […] The pH stability profile of (3Z)-3-[(3,5-dimethyl-1H-pyrrol-2-yl)-methylidene]-1-(1-pyrrolidinylmethyl)-1,3-dihydro-2H-indol-2-one at pH 7.2 and pH 7.6 is tabulated in table 1.

[3] = system: vascular endothelial growth factor receptor (Flk-1/KDR); details: Fong et al. (1999) Cancer Res. 59:99–106; cited from earlier work

In the case of `Cc1cc(C)c(/C=C2\C(=O)N(CN3CCCC3)c3ccccc32)[nH]1` [Example 14, (3Z)-3-[(3,5-dimethyl-1H-pyrrol-2-yl)-methylidene]-1-(1-pyrrolidinylmethyl)-1,3-dihydro-2H-indol-2-one], the “prodrug converted into drug (area under the curve of drug concentration vs time)” value [1] was 80%, the half-life ([1]; dog) was 7.3 min and the half-life ([2]; pH 7.2) was 6.2 min. For the same compound, the half-life ([2]; pH 7.6) was 6 min, the “hydrolysis to 3-(3,5-dimethyl-1H-pyrrol-2-ylmethylene)-1,3-dihydro-indol-2-one” value ([2]; physiological pH) was “rapidly hydrolyses” and the melting point was 129 to 132 °C.

In the case of `Cc1cc(C)c(/C=C2\C(=O)N(COC(=O)CCC(=O)O)c3ccccc32)[nH]1` [Example 3, 4-({(3Z)-3-[(3,5-dimethyl-1H-pyrrol-2-yl)-methylidene]-2-oxo-2,3-dihydro-1H-indol-1-yl}methoxy)-4-oxobutanoic acid], the melting point was 160 to 162 °C.

`Cc1cc(C)c(/C=C2\C(=O)N(CO)c3ccccc32)[nH]1` [Example 1, (3Z)-3-[(3,5-dimethyl-1H-pyrrol-2-yl)-methylidene]-1-(hydroxymethyl)-1,3-dihydro-2H-indol-2-one] gave a melting point of 200 to 202 °C.

For `Cc1cc(C)c(C=C2C(=O)Nc3ccccc32)[nH]1` [3-(3,5-dimethyl-1H-pyrrol-2-ylmethylene)-1,3-dihydro-indol-2-one], the “inhibition of the vascular endothelial growth factor receptor (Flk-1/KDR)” value [3] is listed as “highly active selective inhibitor”.

`CC(=O)OC(C)N1C(=O)/C(=C\c2[nH]c(C)cc2C)c2ccccc21` (stereo not shown) [Example 4, 1-{(3Z)-3-[(3,5-dimethyl-1H-pyrrol-2-yl)-methylidene]-2-oxo-2,3-dihydro-1H-indol-1-yl}ethyl acetate] gave a melting point of 107 to 110 °C.
